# Measurements published in ChEMBL document CHEMBL1132640, “Structure-based design, synthesis, and X-ray crystallography of a high-affinity antagonist of the Grb2-SH2 domain containing an asparagine mimetic” (J Med Chem, 1999).
# Target: Growth factor receptor-bound protein 2 (Homo sapiens, UniProt P62993)
# Test: Inhibition of Grb2-SH2 domain binding to phospho-EGF receptor intracellular C-terminal domain
# Format: cell-based
# Growth factor receptor-bound protein 2, sequence (P62993 whole entry, the tested form may be a part): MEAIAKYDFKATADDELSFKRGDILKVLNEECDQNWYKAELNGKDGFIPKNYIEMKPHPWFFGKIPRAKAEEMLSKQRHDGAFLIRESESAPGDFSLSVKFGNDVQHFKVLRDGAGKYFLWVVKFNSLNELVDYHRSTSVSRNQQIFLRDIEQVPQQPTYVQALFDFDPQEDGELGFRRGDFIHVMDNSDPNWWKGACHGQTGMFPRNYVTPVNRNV
row,Compound,IC50
1,NC(=O)[C@@H]1CCC=C[C@@H]1NC(=O)C1(NC(=O)[C@H](Cc2ccc(OP(=O)(O)O)cc2)NC(=O)OCc2cccc(N)c2)CCCCC1,> 5000 nM
2,NC(=O)C[C@H](NC(=O)C1(NC(=O)[C@H](Cc2ccc(OP(=O)(O)O)cc2)NC(=O)OCc2cccc(N)c2)CCCCC1)C(N)=O,1 nM
